Data on 2 compounds can be found in publication PMC6268327 (2012).

Assay [1] concerns C-myc DNA (NHE III1 promoter fragment duplex) (DNA, duplex) GGGAGGGTGGGGAAGG/CCTTCCCCACCCTCCC
Briefly: fluorescence quenching titration (double-log plot). Particulars: Tris-HCl buffer 100 mM (no metal cations given); 100 mM Tris-HCl, pH 7.4; 298 K; 1 μM compound; double-log fit, apparent.

Assay [2] concerns p53 DNA (P1 promoter fragment duplex) (DNA, duplex) CCTCCTCCCCAACTCC/GGAGTTGGGGAGGAGG
Briefly: fluorescence quenching titration (double-log plot). To be noted: Tris-HCl buffer 100 mM (no metal cations given); 100 mM Tris-HCl, pH 7.4; 298 K; 1 μM compound; double-log fit, apparent.

`OCCCCc1ccc2ccc3cccc4ccc1c2c34`: the Kb amounted to 1390 L/mol in assay [1] and 2040 L/mol in assay [2].

Take `Oc1ccc2ccc3cccc4ccc1c2c34`: the Kb in assay [1] was determined as 404000 L/mol; in assay [2], 1.16e+06 L/mol.
